{"source": "ChEMBL document CHEMBL5226282", "about": "“TLR2 Agonistic Small Molecules: Detailed Structure-Activity Relationship, Applications, and Future Prospects” (J Med Chem, 2021)", "key": {"[1]": {"biological_target": "Toll-like receptor 1/2 (Mus musculus)", "assay": "Agonist activity at TLR2/TLR1 in mouse Macrophage cell line"}, "[2]": {"biological_target": "Toll-like receptor 1/2 (Homo sapiens, UniProt O60603+Q15399)", "sequence (O60603 whole entry)": "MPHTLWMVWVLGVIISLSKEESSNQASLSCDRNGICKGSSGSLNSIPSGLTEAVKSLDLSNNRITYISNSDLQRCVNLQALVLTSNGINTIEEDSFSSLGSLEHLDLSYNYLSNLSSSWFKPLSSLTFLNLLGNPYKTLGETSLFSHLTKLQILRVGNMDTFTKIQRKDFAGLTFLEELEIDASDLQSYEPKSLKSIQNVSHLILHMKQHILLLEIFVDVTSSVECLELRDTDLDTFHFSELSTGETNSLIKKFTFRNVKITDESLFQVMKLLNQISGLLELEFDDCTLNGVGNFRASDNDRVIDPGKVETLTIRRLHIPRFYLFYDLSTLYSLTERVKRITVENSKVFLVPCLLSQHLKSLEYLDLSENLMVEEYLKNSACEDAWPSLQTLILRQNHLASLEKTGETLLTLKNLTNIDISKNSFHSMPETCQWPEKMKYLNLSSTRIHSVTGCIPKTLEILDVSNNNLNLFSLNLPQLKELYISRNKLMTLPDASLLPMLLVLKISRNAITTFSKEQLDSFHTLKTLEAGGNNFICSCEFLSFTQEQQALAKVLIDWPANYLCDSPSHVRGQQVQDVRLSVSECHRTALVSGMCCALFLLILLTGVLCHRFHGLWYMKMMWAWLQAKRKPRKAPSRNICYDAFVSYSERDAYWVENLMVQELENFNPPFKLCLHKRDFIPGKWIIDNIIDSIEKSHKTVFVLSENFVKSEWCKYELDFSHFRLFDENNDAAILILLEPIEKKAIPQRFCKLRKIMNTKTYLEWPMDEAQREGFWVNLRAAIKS", "sequence (Q15399 whole entry)": "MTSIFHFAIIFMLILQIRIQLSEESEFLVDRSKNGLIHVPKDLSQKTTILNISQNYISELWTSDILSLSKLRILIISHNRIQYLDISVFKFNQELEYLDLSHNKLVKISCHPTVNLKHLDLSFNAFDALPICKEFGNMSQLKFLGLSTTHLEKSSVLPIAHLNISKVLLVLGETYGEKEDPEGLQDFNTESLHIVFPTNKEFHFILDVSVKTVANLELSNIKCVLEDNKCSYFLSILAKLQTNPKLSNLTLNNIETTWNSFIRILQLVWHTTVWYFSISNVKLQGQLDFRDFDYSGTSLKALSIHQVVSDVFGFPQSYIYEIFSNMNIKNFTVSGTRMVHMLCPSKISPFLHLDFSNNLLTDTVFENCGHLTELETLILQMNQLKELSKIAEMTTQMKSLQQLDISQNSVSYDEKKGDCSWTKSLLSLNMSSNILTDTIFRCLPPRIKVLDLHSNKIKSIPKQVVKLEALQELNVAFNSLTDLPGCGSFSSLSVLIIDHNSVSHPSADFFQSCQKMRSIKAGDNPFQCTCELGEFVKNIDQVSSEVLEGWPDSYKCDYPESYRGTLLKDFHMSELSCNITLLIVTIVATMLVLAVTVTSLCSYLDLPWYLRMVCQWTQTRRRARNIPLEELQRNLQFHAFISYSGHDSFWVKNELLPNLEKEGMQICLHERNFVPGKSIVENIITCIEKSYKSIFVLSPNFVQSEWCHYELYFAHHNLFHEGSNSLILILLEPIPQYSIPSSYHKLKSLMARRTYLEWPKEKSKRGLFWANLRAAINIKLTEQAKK", "assay": "Agonist activity at TLR2/TLR1 in human THP-1 cells", "format": "cell-based"}}, "data": [{"smiles": "C#CCNc1cc(C(=O)N2C[C@@H](C(=O)N[C@H]3C[C@@H]3c3ccccc3)[C@H](C(=O)N[C@H]3C[C@@H]3c3ccccc3)C2)ccc1C(=O)N1C[C@@H](C(=O)N[C@H]2C[C@@H]2c2ccccc2)[C@H](C(=O)N[C@H]2C[C@@H]2c2ccccc2)C1", "values": [{"measurement": "EC50", "setting": "[1]", "result": 750, "unit": "nM"}, {"measurement": "EC50", "setting": "[2]", "result": 15, "unit": "nM"}]}, {"smiles": "O=C(N[C@H]1C[C@@H]1c1ccc(Cl)cc1)[C@@H]1CN(C(=O)c2ccc(C(=O)N3C[C@@H](C(=O)N[C@H]4C[C@@H]4c4ccc(Cl)cc4)[C@H](C(=O)N[C@@H]4C[C@H]4c4ccc(Cl)cc4)C3)cc2)C[C@H]1C(=O)N[C@H]1C[C@@H]1c1ccc(Cl)cc1", "values": [{"measurement": "EC50", "setting": "[1]", "result": 5000, "unit": "nM"}, {"measurement": "EC50", "setting": "[2]", "result": 40, "unit": "nM"}]}, {"smiles": "O=C(O)[C@@H]1CN(C(=O)c2ccc(C(=O)N3C[C@@H](C(=O)N[C@H]4C[C@@H]4c4ccccc4)[C@H](C(=O)N[C@@H]4C[C@H]4c4ccccc4)C3)cc2)C[C@H]1C(=O)N[C@H]1C[C@@H]1c1ccccc1", "values": [{"measurement": "EC50", "setting": "[1]", "result": "> 5000", "unit": "nM"}, {"measurement": "EC50", "setting": "[2]", "result": 200, "unit": "nM"}]}, {"smiles": "O=C(N[C@H]1C[C@@H]1c1ccccc1)[C@@H]1CN(C(=O)c2ccc(C(=O)N3C[C@@H](C(=O)N[C@H]4C[C@@H]4c4ccccc4)[C@H](C(=O)N[C@H]4C[C@@H]4c4ccccc4)C3)c(O)c2)C[C@H]1C(=O)N[C@H]1C[C@@H]1c1ccccc1", "values": [{"measurement": "EC50", "setting": "[1]", "result": "> 5000", "unit": "nM"}, {"measurement": "EC50", "setting": "[2]", "result": 20, "unit": "nM"}]}, {"smiles": "O=C(N[C@H]1C[C@@H]1c1ccccc1)[C@@H]1CN(C(=O)c2cc(Br)c(C(=O)N3C[C@@H](C(=O)N[C@H]4C[C@@H]4c4ccccc4)[C@H](C(=O)N[C@H]4C[C@@H]4c4ccccc4)C3)cc2Br)C[C@H]1C(=O)N[C@H]1C[C@@H]1c1ccccc1", "values": [{"measurement": "EC50", "setting": "[1]", "result": "> 5000", "unit": "nM"}, {"measurement": "EC50", "setting": "[2]", "result": 860, "unit": "nM"}]}, {"smiles": "O=C(N[C@H]1C[C@@H]1c1ccc(F)cc1)[C@@H]1CN(C(=O)c2ccc(C(=O)N3C[C@@H](C(=O)N[C@H]4C[C@@H]4c4ccc(F)cc4)[C@H](C(=O)N[C@@H]4C[C@H]4c4ccc(F)cc4)C3)cc2)C[C@H]1C(=O)N[C@H]1C[C@@H]1c1ccc(F)cc1", "values": [{"measurement": "EC50", "setting": "[1]", "result": 1.2, "unit": "nM"}, {"measurement": "EC50", "setting": "[2]", "result": 0.13, "unit": "nM"}]}, {"smiles": "O=C(NCCc1ccc(F)cc1)[C@@H]1CN(C(=O)[C@H]2CC[C@H](C(=O)N3C[C@@H](C(=O)NCCc4ccc(F)cc4)[C@H](C(=O)NCCc4ccc(F)cc4)C3)CC2)C[C@H]1C(=O)NCCc1ccc(F)cc1", "values": [{"measurement": "EC50", "setting": "[1]", "result": "> 5000", "unit": "nM"}, {"measurement": "EC50", "setting": "[2]", "result": "> 5000", "unit": "nM"}]}, {"smiles": "O=C(NCCc1ccc(F)cc1)[C@@H]1CN(C(=O)C#CC(=O)N2C[C@@H](C(=O)NCCc3ccc(F)cc3)[C@H](C(=O)NCCc3ccc(F)cc3)C2)C[C@H]1C(=O)NCCc1ccc(F)cc1", "values": [{"measurement": "EC50", "setting": "[1]", "result": "> 5000", "unit": "nM"}, {"measurement": "EC50", "setting": "[2]", "result": "> 5000", "unit": "nM"}]}, {"smiles": "Cc1cc(C(=O)N2C[C@@H](C(=O)N[C@H]3C[C@@H]3c3ccccc3)[C@H](C(=O)N[C@H]3C[C@@H]3c3ccccc3)C2)c(C)cc1C(=O)N1C[C@@H](C(=O)N[C@H]2C[C@@H]2c2ccccc2)[C@H](C(=O)N[C@H]2C[C@@H]2c2ccccc2)C1", "values": [{"measurement": "EC50", "setting": "[1]", "result": "> 5000", "unit": "nM"}, {"measurement": "EC50", "setting": "[2]", "result": "> 5000", "unit": "nM"}]}, {"smiles": "CCCCCCCCCCCCNC(=O)[C@@H]1CN(C(=O)c2ccc(C(=O)N3C[C@@H](C(=O)N[C@H]4C[C@@H]4c4ccccc4)[C@H](C(=O)N[C@@H]4C[C@H]4c4ccccc4)C3)cc2)C[C@H]1C(=O)NCCCCCCCCCCCC", "values": [{"measurement": "EC50", "setting": "[1]", "result": 620, "unit": "nM"}, {"measurement": "EC50", "setting": "[2]", "result": 1.3, "unit": "nM"}]}, {"smiles": "O=C(NCCc1ccc(F)cc1)[C@@H]1CN(C(=O)/C=C/C(=O)N2C[C@@H](C(=O)NCCc3ccc(F)cc3)[C@H](C(=O)NCCc3ccc(F)cc3)C2)C[C@H]1C(=O)NCCc1ccc(F)cc1", "values": [{"measurement": "EC50", "setting": "[1]", "result": "> 5000", "unit": "nM"}, {"measurement": "EC50", "setting": "[2]", "result": "> 5000", "unit": "nM"}]}, {"smiles": "O=C(N[C@H]1C[C@@H]1c1ccccc1)[C@@H]1CN(C(=O)c2ccc(C(=O)N3C[C@@H](C(=O)N[C@H]4C[C@@H]4c4ccccc4)[C@H](C(=O)N[C@H]4C[C@@H]4c4ccccc4)C3)s2)C[C@H]1C(=O)N[C@H]1C[C@@H]1c1ccccc1", "values": [{"measurement": "EC50", "setting": "[1]", "result": "> 5000", "unit": "nM"}, {"measurement": "EC50", "setting": "[2]", "result": 350, "unit": "nM"}]}, {"smiles": "Cc1ccc([C@H]2C[C@@H]2NC(=O)[C@@H]2CN(C(=O)c3ccc(C(=O)N4C[C@@H](C(=O)N[C@H]5C[C@@H]5c5ccc(C)cc5)[C@H](C(=O)N[C@@H]5C[C@H]5c5ccc(C)cc5)C4)cc3)C[C@H]2C(=O)N[C@H]2C[C@@H]2c2ccc(C)cc2)cc1", "values": [{"measurement": "EC50", "setting": "[1]", "result": "> 5000", "unit": "nM"}, {"measurement": "EC50", "setting": "[2]", "result": 360, "unit": "nM"}]}, {"smiles": "CCCCCCCCCCCCCCCCNC(=O)[C@@H]1CN(C(=O)c2ccc(C(=O)N3C[C@@H](C(=O)NCCCCCCCCCCCCCCCC)[C@H](C(=O)NCCCCCCCCCCCCCCCC)C3)cc2)C[C@H]1C(=O)NCCCCCCCCCCCCCCCC", "values": [{"measurement": "EC50", "setting": "[1]", "result": "> 5", "unit": "nM"}]}]}
